Patent US20240025891A1 (Celgene Corporation, priority 2020, published 2024)

What follows are compounds tested on Onchocerca gutturosa adult male worms (assay: Onchocerciasis in vitro screening model Onchocerca gutturosa (worm motility score and MTT/formazan colorimetry)). Details: Onchocerca gutturosa, read-out: O. gutt Act class.
Experimental: Onchocerciasis: In Vitro Screening Model Onchocerca gutturosa
Parasite and cell cultures. Onchocerca gutturosa adult male worms were obtained by dissection from the nuchal ligament connective tissues of naturally infected cattle, from Gambia, W Africa.
The worms were maintained for at least 24 h in culture before use in Eagles Minimum Essential Medium with Earl's Salts (Gibco, UK)+10% heat inactivated new born calf serum (Gibco, UK)+antibiotic cover of 200 units/ml penicillin, 200 μg/ml streptomycin and 0.5 μg/ml amphotericin B (Sigma, UK). Only normally active specimens were used in the test. All cultures and assays were conducted at 37° C. under an atmosphere of 5% CO2 in air.
Drug sensitivity assays. Compound stock solutions were prepared in 100% DMSO unless otherwise indicated and diluted into the medium. Any unused compound stocks were stored at −20° C. Assays were performed in sterile 24-well (2 ml) plates (Falcon, UK).
Worms were then transferred individually to each well of the plate using fine forceps. Worm viability was assessed using 2 parameters: • The measurement of mean worm motility scores on a scale of 0 (immotile) to 10 (maximum) every 24 h, terminating at 120 h, using an Olympus inverted microscope. • The biochemical evaluation of worm viability using MTT/formazan colorimetry. The MTT assay was carried out after the last motility reading (120 h). Single intact worms were placed in each well of a 48-well plate (Falcon, UK) containing 0.5 ml of a solution consisting of 0.5 mg/ml MTT (Sigma UK) in phosphate buffered saline, and then incubated for 30 min at 37° C. The worms were removed, blotted carefully, and individually transferred to separate wells of a 96-well microtiter plate, each containing 200 μl of DMSO to solubilize the formazan. After 1 h the plate was gently agitated to disperse the color evenly and the absorbance value (optical density) of the resulting formazan solution was determined at 490 nm using a multi-well scanning spectrophotometer (Elisa-reader, Dynatech, UK). Inhibition of formazan formation was correlated with worm damage or death.
Primary screen. New compounds were usually tested at 1.25×10^−5 M. Also expressed in μg/ml.
Secondary screen. […] Serial 1 in 4 drug dilutions was carried out to find activity endpoint and EC50 values for motility reduction and inhibition of formazan formation were produced. EC50 values were determined using Excel or Origin V7 scientific graphing and data analysis software.

| Compound | IC50 [µM] |
| --- | --- |
| FC(F)(F)c1ccnc(Nc2nc(-c3ccccn3)c(CN3CCCCC3)s2)c1 [Example 164, 5-(piperidin-1-ylmethyl)-4-(pyridin-2-yl)-N-(4-(trifluoromethyl)pyridin-2-yl)thiazol-2-amine] | < 0.2 |
| OCc1sc(Nc2cc(C(F)(F)F)ccn2)nc1-c1ccccn1 [Example 165, (4-(pyridin-2-yl)-2-(4-(trifluoromethyl)pyridin-2-ylamino)thiazol-5-yl)methanol] | < 0.2 |
| FC(F)(F)c1ccnc(Nc2nc(-c3ccccn3)c(COCC3CC3)s2)c1 [Example 166, 5-((cyclopropyl-methoxy)methyl)-4-(pyridin-2-yl)-N-(4-(trifluoromethyl)pyridin-2-yl) thiazol-2-amine] | 0.2 to 0.5 |
| CCCCc1ccnc(Nc2nc(-c3ccccn3)cs2)c1 [Example 167, N-(4-butylpyridin-2-yl)-4-(pyridin-2-yl)thiazol-2-amine] | < 0.2 |
| c1ccc(-c2csc(Nc3cc(C4CCC4)ccn3)n2)nc1 [Example 168, N-(4-cyclobutyl-pyridin-2-yl)-4-(pyridin-2-yl)thiazol-2-amine] | < 0.2 |
| c1ccc(-c2csc(Nc3cc(-c4cccnn4)ccn3)n2)nc1 [Example 169, N-(4-(pyridazin-3-yl)pyridin-2-yl)-4-(pyridin-2-yl)thiazol-2-amine] | < 0.2 |
| O=C(NC1CC1)c1ccnc(Nc2nc(-c3ccccn3)cs2)c1 [Example 170, N-cyclopropyl-2-(4-(pyridin-2-yl)thiazol-2-ylamino) isonicotinamide] | < 0.2 |
| CNC(=O)c1ccc(-c2ccnc(Nc3nc(-c4ccccn4)cs3)c2)cc1 [Example 171, N-methyl-4-(2-(4-(pyridin-2-yl)thiazol-2-ylamino)pyridin-4-yl)benzamide] | < 0.2 |
| CCCc1ccnc(Nc2nc(-c3ccccn3)cs2)c1 [Example 172, N-(4-propylpyridin-2-yl)-4-(pyridin-2-yl)thiazol-2-amine] | 0.2 to 0.5 |
| c1ccc(-c2csc(Nc3cc(-c4cnccn4)ccn3)n2)nc1 [Example 173, N-(4-(pyrazin-2-yl)pyridin-2-yl)-4-(pyridin-2-yl)thiazol-2-amine] | < 0.2 |
| c1ccc(-c2csc(Nc3cc(-c4ncccn4)ccn3)n2)nc1 [Example 174, 4-(pyridin-2-yl)-N-(4-(pyrimidin-2-yl)pyridin-2-yl)thiazol-2-amine] | 0.2 to 0.5 |
| c1ccc(-c2csc(Nc3cc(-c4cccc5ccccc45)ccn3)n2)nc1 [Example 175, N-(4-(naphthalen-1-yl)pyridin-2-yl)-4-(pyridin-2-yl)thiazol-2-amine] | < 0.2 |
| c1ccc(-c2csc(Nc3cc(C4CC4)ccn3)n2)nc1 [Example 176, N-(4-cyclopropyl-pyridin-2-yl)-4-(pyridin-2-yl)thiazol-2-amine] | < 0.2 |
| O=C(NCC1CC1)c1ccnc(Nc2nc(-c3ccccn3)cs2)c1 [Example 177, N-(cyclopropyl-methyl)-2-(4-(pyridin-2-yl)thiazol-2-ylamino) isonicotinamide] | 0.5 to 5 |
| CCNC(=O)c1ccnc(Nc2nc(-c3ccccn3)cs2)c1 [Example 178, N-ethyl-2-(4-(pyridin-2-yl)thiazol-2-ylamino) isonicotinamide] | < 0.2 |
| O=C(NC1CC(F)(F)C1)c1ccnc(Nc2ncc(-c3ccccn3)s2)c1 [Example 179, N-(3,3-difluoro-cyclobutyl)-2-(5-(pyridin-2-yl)thiazol-2-ylamino) isonicotinamide] | < 0.2 |

| Compound | IC50 [µM] |
| --- | --- |
| Cc1ccnc(Nc2nc(-c3ccccn3)c(CCOC3CCC3)s2)c1 [Example 180, 5-(2-cyclobutoxy-ethyl)-N-(4-methylpyridin-2-yl)-4-(pyridin-2-yl)thiazol-2-amine] | < 0.2 |
| Cc1ccnc(Nc2nc(-c3ccccn3)c(C(C)(C)C)s2)c1 [Example 181, 5-tert-butyl-N-(4-methylpyridin-2-yl)-4-(pyridin-2-yl)thiazol-2-amine] | 0.2 to 0.5 |
| Cc1ccnc(Nc2nc(-c3ccccn3)c(COCC3CCC3)s2)c1 [Example 182, 5-((cyclobutyl-methoxy)methyl)-N-(4-methylpyridin-2-yl)-4-(pyridin-2-yl)thiazol-2-amine] | 0.2 to 0.5 |
| Cc1ccnc(Nc2nc(-c3ccccn3)c(CN3CCC3)s2)c1 [Example 183, 5-(azetidin-1-ylmethyl)-N-(4-methylpyridin-2-yl)-4-(pyridin-2-yl)thiazol-2-amine] | < 0.2 |
| CCc1sc(Nc2cc(C)ccn2)nc1-c1ccccn1 [Example 184, 5-ethyl-N-(4-methylpyridin-2-yl)-4-(pyridin-2-yl)thiazol-2-amine] | < 0.2 |
| Cc1ccnc(Nc2nc(-c3ccccn3)c(CN3CCCC3)s2)c1 [Example 185, N-(4-methylpyridin-2-yl)-4-(pyridin-2-yl)-5-(pyrrolidin-1-ylmethyl) thiazol-2-amine] | 0.2 to 0.5 |
| Cc1sc(Nc2cc(C(F)(F)F)c(C(C)C)cn2)nc1-c1ccccn1 [Example 186, N-(5-isopropyl-4-(trifluoromethyl)pyridin-2-yl)-5-methyl-4-(pyridin-2-yl)thiazol-2-amine] | < 0.2 |
| C[C@@H]1CN(C(=O)c2sc(Nc3cc(C(F)(F)F)ccn3)nc2-c2ccccn2)C[C@H](C)O1 [Example 187, ((2S,6R)-2,6-dimethyl-morpholino) (4-(pyridin-2-yl)-2-(4-(trifluoromethyl)pyridin-2-ylamino)thiazol-5-yl)methanone] | < 0.2 |
| C[C@@H]1CN(Cc2sc(Nc3cc(C(=O)NCC(F)(F)F)ccn3)nc2-c2ccccn2)C[C@H](C)O1 [Example 188, 2-(5-(((2S,6R)-2,6-dimethyl-morpholino)methyl)-4-(pyridin-2-yl)thiazol-2-ylamino)-N-(2,2,2-trifluoroethyl) isonicotinamide] | < 0.2 |
| N#Cc1sc(Nc2cc(C(F)(F)F)ccn2)nc1-c1ccccn1 [Example 189, 4-(pyridin-2-yl)-2-(4-(trifluoromethyl)pyridin-2-ylamino) thiazole-5-carbonitrile] | 0.5 to 5 |
| O=C(c1sc(Nc2cc(C(F)(F)F)ccn2)nc1-c1ccccn1)N1CCC2(CC1)OCCO2 [Example 190, (4-(pyridin-2-yl)-2-(4-(trifluoromethyl)pyridin-2-ylamino)thiazol-5-yl)(1,4-dioxa-8-azaspiro[4.5]decan-8-yl)methanone] | 0.5 to 5 |
| CN1CCN(C(=O)c2sc(Nc3cc(C(F)(F)F)ccn3)nc2-c2ccccn2)CC1 [Example 191, (4-methylpiperazin-1-yl)(4-(pyridin-2-yl)-2-(4-(trifluoromethyl)pyridin-2-ylamino)thiazol-5-yl)methanone] | 0.5 to 5 |
| O=C(c1sc(Nc2cc(C(F)(F)F)ccn2)nc1-c1ccccn1)N1CCN2CCCC2C1 (stereo not shown) [Example 192, (hexahydro-pyrrolo [1,2-a]pyrazin-2(1H)-yl)(4-(pyridin-2-yl)-2-(4-(trifluoromethyl)pyridin-2-ylamino)thiazol-5-yl)methanone] | 0.2 to 0.5 |
| OCc1sc(Nc2cc(F)ccn2)nc1-c1ccccn1 [Example 193, (2-(4-fluoropyridin-2-ylamino)-4-(pyridin-2-yl)thiazol-5-yl)methanol] | < 0.2 |
| CCc1sc(Nc2cccc(C(F)(F)F)n2)nc1-c1ccccn1 [Example 194, 5-ethyl-4-(pyridin-2-yl)-N-(6-(trifluoromethyl)pyridin-2-yl)thiazol-2-amine] | 0.5 to 5 |
